Reference: ChEMBL document CHEMBL5291721, “A preclinical secondary pharmacology resource illuminates target-adverse drug reaction associations of marketed drugs” (Nat Commun, 2023)

Columns and labels:
[1] = biological target: Sodium-dependent noradrenaline transporter (Homo sapiens, UniProt P23975)
[2] = biological target: T1, Alpha-2C adrenergic receptor (Homo sapiens, UniProt P18825); type: functional
T1 sequence (P18825 whole entry): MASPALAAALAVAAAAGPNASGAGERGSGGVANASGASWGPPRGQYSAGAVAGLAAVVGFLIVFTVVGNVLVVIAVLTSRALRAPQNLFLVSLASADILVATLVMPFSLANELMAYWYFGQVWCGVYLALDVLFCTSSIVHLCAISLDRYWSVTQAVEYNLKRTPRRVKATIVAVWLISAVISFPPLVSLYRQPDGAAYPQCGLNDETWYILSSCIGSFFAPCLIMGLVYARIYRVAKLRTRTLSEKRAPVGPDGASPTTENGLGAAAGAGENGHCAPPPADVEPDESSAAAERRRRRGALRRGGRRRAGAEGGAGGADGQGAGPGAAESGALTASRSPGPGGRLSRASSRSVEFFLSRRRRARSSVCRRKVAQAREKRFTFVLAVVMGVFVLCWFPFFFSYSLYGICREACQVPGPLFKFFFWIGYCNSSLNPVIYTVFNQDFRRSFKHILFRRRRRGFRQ

Adenosine receptor A2a = Adenosine receptor A2a (Homo sapiens, UniProt P29274)
Chain of Adenosine receptor A2a (P29274 whole entry): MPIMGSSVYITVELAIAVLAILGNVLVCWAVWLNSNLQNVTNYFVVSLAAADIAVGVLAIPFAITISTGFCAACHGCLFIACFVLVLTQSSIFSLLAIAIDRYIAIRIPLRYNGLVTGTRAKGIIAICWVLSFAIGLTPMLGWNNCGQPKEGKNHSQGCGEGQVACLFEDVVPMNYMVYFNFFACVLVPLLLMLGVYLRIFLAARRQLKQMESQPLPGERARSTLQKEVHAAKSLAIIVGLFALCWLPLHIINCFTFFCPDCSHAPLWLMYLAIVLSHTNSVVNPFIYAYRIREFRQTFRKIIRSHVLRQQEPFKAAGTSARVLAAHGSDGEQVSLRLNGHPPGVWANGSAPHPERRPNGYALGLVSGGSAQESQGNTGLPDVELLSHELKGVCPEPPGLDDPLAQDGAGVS

[3] = biological target: T2, 5-hydroxytryptamine receptor 2B (Homo sapiens, UniProt P41595); type: functional, cell-based
T2 sequence (P41595 whole entry): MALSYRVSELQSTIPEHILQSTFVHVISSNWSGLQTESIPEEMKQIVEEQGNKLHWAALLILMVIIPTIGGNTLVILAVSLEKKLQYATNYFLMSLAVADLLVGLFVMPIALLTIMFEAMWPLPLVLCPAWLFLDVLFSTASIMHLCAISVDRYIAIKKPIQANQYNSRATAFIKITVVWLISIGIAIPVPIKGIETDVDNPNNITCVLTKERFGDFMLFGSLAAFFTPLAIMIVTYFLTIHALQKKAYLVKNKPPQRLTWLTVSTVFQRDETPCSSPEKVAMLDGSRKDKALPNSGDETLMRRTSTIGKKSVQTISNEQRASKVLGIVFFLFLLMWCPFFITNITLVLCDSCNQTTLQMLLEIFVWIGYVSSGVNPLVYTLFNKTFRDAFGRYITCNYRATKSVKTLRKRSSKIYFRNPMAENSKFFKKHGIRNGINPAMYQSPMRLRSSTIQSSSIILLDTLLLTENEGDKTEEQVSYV

Progesterone receptor = biological target: T3, Progesterone receptor (Homo sapiens, UniProt P06401); type: functional
T3 sequence (P06401 whole entry): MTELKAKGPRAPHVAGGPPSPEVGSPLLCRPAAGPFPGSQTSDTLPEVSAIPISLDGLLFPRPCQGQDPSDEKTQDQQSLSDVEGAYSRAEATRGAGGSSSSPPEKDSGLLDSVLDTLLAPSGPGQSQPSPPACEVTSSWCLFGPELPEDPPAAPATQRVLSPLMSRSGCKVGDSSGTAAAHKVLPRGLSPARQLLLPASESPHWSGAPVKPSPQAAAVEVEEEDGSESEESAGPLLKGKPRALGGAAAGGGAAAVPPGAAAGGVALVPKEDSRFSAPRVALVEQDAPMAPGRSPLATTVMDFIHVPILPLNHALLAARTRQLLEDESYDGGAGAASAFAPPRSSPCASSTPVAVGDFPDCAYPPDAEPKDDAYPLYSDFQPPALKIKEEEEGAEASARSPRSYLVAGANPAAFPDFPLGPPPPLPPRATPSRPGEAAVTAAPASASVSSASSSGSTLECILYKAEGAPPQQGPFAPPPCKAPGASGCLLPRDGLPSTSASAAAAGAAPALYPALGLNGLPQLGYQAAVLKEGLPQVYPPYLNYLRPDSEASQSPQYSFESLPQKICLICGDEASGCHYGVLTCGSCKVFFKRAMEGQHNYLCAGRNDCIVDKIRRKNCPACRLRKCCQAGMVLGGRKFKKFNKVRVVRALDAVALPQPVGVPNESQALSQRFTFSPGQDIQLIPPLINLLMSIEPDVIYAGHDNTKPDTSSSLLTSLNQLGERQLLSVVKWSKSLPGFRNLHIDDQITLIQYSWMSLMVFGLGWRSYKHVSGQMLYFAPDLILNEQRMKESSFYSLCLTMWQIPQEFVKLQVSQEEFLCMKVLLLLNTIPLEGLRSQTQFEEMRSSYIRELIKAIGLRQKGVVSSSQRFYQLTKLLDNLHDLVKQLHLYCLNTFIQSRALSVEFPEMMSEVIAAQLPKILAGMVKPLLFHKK

[4] = biological target: T4, Muscarinic acetylcholine receptor M2 (Homo sapiens, UniProt P08172); type: functional, cell-based
T4 sequence (P08172 whole entry): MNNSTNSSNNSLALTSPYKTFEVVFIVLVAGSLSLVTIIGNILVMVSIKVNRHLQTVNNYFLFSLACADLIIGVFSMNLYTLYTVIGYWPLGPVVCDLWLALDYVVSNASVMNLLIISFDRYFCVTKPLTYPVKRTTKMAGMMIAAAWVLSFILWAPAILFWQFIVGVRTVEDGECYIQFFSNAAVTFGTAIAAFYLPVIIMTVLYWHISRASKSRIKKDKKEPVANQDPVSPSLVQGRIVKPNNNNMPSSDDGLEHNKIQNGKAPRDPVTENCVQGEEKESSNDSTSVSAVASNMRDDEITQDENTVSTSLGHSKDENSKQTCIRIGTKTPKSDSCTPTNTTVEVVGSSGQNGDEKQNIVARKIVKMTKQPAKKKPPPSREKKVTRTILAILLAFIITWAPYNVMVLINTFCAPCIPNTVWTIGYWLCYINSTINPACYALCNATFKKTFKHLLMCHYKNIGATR

Endothelin-1 receptor = biological target: T5, Endothelin-1 receptor (Homo sapiens, UniProt P25101)
T5 sequence (P25101 whole entry): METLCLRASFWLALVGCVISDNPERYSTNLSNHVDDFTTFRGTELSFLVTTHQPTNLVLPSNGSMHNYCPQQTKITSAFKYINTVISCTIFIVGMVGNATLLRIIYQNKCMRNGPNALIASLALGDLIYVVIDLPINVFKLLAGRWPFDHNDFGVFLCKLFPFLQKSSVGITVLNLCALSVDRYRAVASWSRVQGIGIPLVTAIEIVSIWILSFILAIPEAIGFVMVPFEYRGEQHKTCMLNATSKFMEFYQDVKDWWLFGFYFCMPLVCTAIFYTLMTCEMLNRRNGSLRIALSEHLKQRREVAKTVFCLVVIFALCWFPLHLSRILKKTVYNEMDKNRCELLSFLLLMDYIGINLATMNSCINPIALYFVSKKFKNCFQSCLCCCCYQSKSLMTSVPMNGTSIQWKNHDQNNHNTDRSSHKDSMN

Histamine H3 receptor = Histamine H3 receptor (Homo sapiens, UniProt Q9Y5N1)
Chain of Histamine H3 receptor (Q9Y5N1 whole entry): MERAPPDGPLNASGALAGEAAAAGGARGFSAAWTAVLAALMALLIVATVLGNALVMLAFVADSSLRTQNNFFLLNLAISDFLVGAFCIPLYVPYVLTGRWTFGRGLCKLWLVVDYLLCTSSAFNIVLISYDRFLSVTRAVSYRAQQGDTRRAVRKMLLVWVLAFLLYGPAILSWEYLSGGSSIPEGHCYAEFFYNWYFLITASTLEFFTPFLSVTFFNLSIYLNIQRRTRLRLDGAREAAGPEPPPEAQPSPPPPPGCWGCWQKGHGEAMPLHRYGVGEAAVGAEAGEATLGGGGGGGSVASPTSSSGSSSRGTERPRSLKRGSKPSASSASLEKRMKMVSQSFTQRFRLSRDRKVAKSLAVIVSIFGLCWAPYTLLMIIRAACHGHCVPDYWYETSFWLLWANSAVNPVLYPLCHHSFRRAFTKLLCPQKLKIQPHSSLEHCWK

[5] = biological target: Kappa-type opioid receptor (Homo sapiens, UniProt P41145)
Chain of Kappa-type opioid receptor (P41145 whole entry): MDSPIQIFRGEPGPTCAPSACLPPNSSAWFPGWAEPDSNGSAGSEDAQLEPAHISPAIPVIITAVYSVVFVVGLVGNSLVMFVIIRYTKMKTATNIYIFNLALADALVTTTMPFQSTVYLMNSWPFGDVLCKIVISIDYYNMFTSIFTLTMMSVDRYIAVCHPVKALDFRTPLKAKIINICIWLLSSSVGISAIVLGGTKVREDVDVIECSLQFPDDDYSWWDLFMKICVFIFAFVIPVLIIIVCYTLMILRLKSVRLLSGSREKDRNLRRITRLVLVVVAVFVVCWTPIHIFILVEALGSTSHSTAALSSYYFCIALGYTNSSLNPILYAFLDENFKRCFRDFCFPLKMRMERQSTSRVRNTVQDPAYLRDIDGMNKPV

Cannabinoid receptor 1 = Cannabinoid receptor 1 (Homo sapiens, UniProt P21554); type: functional, cell-based
Chain of Cannabinoid receptor 1 (P21554 whole entry): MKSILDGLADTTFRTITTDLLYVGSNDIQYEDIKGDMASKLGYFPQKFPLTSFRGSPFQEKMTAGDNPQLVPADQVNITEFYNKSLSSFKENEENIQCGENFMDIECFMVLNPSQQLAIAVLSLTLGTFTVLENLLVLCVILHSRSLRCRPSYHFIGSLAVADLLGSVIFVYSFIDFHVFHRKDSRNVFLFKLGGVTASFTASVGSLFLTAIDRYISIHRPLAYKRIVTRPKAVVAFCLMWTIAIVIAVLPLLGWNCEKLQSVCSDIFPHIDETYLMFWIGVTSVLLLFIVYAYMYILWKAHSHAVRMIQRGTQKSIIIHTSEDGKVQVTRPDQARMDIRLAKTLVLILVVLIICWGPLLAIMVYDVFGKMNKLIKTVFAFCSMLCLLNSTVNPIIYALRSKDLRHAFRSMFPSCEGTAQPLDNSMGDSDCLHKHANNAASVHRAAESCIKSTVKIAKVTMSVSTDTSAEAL

[6] = biological target: T2, 5-hydroxytryptamine receptor 2B; type: functional, cell-based; remark: listed apart in the source
[7] = biological target: Growth hormone secretagogue receptor type 1 (Homo sapiens, UniProt Q92847)
Chain of Growth hormone secretagogue receptor type 1 (Q92847 whole entry): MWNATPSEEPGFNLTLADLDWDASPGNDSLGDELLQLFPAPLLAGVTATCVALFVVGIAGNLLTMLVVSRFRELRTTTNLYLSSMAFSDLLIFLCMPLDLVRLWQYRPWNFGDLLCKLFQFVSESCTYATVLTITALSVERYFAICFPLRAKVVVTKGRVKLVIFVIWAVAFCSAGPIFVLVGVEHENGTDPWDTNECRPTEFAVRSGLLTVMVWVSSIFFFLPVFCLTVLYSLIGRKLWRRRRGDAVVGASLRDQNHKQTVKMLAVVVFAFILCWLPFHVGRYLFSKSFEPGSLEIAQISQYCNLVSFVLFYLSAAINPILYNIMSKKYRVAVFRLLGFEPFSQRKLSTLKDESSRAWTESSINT

Motilin receptor = Motilin receptor (Homo sapiens, UniProt O43193)
Chain of Motilin receptor (O43193 whole entry): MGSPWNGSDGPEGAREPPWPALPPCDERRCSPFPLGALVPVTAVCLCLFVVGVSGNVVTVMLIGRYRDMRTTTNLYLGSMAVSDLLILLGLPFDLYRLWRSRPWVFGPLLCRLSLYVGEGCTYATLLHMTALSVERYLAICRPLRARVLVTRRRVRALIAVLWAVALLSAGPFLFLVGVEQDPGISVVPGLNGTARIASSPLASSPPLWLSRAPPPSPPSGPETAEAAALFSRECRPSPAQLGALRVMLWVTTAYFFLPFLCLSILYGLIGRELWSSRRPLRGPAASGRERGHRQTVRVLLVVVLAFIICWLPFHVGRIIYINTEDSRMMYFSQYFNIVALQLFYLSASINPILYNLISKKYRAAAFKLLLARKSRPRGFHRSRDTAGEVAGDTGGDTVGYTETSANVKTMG

[8] = biological target: Voltage-dependent L-type calcium channel subunit alpha-1C (Rattus norvegicus, UniProt P22002); type: functional
Also: assay procedure not described here.

Chain of Sodium-dependent noradrenaline transporter (P23975 whole entry): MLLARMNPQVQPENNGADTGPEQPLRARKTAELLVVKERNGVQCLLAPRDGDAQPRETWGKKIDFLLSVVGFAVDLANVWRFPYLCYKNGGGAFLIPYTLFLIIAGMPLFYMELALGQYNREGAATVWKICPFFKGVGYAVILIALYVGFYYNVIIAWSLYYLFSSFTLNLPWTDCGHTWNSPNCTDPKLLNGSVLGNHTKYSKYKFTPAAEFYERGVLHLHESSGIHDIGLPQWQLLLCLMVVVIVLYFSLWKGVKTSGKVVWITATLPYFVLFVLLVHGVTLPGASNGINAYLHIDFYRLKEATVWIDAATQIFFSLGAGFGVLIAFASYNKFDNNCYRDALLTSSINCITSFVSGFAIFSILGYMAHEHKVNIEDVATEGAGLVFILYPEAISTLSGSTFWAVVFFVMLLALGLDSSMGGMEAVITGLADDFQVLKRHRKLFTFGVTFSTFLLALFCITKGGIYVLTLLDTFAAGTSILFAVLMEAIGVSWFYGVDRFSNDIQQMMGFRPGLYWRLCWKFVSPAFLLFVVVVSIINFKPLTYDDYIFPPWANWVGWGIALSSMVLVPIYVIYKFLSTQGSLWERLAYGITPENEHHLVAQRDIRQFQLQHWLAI

Row | AC50 [1] [µM] | AC50 [2] [µM] | AC50 (Adenosine receptor A2a) [µM] | AC50 [3] [µM] | AC50 (Progesterone receptor) [µM] | AC50 [4] [µM] | AC50 (Endothelin-1 receptor) [µM] | AC50 (Histamine H3 receptor) [µM] | AC50 [5] [µM] | AC50 (Cannabinoid receptor 1) [µM] | AC50 [6] [µM] | AC50 [7] [µM] | AC50 (Motilin receptor) [µM] | AC50 [8] [µM] | SMILES
1 | 6.3 | > 30 | > 30 | > 30 | > 30 | > 30 | > 30 | > 30 | > 30 | > 30 | > 30 | > 30 | > 30 |  | CCCCCCOC(=O)NC(=N)c1ccc(NCc2nc3cc(C(=O)N(CCC(=O)OCC)c4ccccn4)ccc3n2C)cc1 [DABIGATRAN ETEXILATE]
2 | > 30 | > 30 | > 30 | > 30 | > 30 | > 30 | > 30 | > 30 | > 30 | > 30 | > 30 | > 30 | > 30 |  | CC(=O)OCC1=C(C(=O)O)N2C(=O)[C@@H](NC(=O)Cc3cccs3)[C@H]2SC1 [CEPHALOTHIN]
3 | > 30 | > 30 | > 30 | > 30 | > 30 | > 30 | > 30 | > 30 | > 30 | > 30 | > 30 | > 30 | > 30 |  | CS(=O)(=O)NC(=O)CCC/C=C\C[C@H]1C(=O)C[C@@H](O)[C@@H]1/C=C/[C@@H](O)COc1ccccc1 [SULPROSTONE]
4 | > 30 | > 30 | > 30 | > 30 | > 30 | > 30 | > 30 | > 30 | > 30 | > 30 | > 30 | > 30 | > 30 |  | CCC(=O)O[C@H](CC(=O)O)C[N+](C)(C)C [LEVOCARNITINE PROPIONATE]
5 | > 30 | > 30 | > 30 | > 30 | > 30 | > 30 | > 30 | > 30 | > 30 | > 30 | > 30 | > 30 | > 30 |  | CCCCC[C@H](O)CC[C@@H]1[C@H]2Cc3cccc(OCC(=O)O)c3C[C@H]2C[C@H]1O [TREPROSTINIL]
6 | > 30 | > 30 | > 30 | > 30 | > 30 | > 30 | > 30 | > 30 | > 30 | > 30 | > 30 | > 30 | > 30 |  | COc1ccc(-n2nc(C(N)=O)c3c2C(=O)N(c2ccc(N4CCCCC4=O)cc2)CC3)cc1 [APIXABAN]
7 | > 30 | > 30 | > 30 | > 30 | > 30 | > 30 | > 30 | > 30 | 8.95 |  | > 30 | > 30 | > 30 | > 30 | CCC(NC(C)C)C(O)c1ccc(O)c(O)c1 (stereo unspecified) [ISOETHARINE]
